Data from patent US6663897B2, “Oral itraconazole formulations and methods of making the same” (DSM IP Assets B.V., priority 2001, dated 2003).

What was measured:
[1] = Stability study under accelerated conditions (ICH guidelines); type: physicochemical; conditions: three months
Description: The batch samples prepared under Example 1 were evaluated for stability under accelerated conditions under ICH guidelines and three months stability results are furnished in Table 4. Physical Examination Specification: Size 0 elongated hard gelatin capsule with an opaque white cap and a natural body. Capsules were substantially free from rough edges and spots and were filled with off white colored coated microcrystalline cellulose spheres.

[2] = cited from earlier work

SMILES: CCC(C)n1ncn(-c2ccc(N3CCN(c4ccc(OCC5COC(Cn6cncn6)(c6ccc(Cl)cc6Cl)O5)cc4)CC3)cc2)c1=O (racemic) [Itraconazole, (±)-cis-4-[4-[4-[4-[[2-(2,4-dichlorophenyl)-2-(1H-1,2,4-triazol-1-ylmethyl)-1,3-dioxolan-4-yl]methoxy]phenyl]-1-piperazinyl]phenyl]-2,4-dihydro-2-(1-methylpropyl)-3H-1,2,4-triazol-3-one]
- degradation of itraconazole [1]: no significant degradation
- 0.1 N Hydrochloric acid solubility ([2]; 0.1 N Hydrochloric acid): < 6 micrograms per milliliter
- water solubility ([2]; water): less than 1 microgram per milliliter
